This is an account of results in patent US10780090B2, “Heteroaryl compounds useful as inhibitors of SUMO activating enzyme” (Millennium Pharmaceuticals, Inc., priority 2014, dated 2020).

Some results are limits rather than exact numbers.

The target in the assay is recombinant human SAE enzyme (Homo sapiens (Human), UniProt Q9UBT2). The assay is described as follows: SAE HTRF enzyme assay. The class given is biochemical. As to conditions: for Percent Inhibition: SAE inhibition at compound concentration 0.111 μM; for IC50: SAE inhibition, class symbols, legend in nM. The essentials: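 HTRF read-out using Eu-cryptate anti-Flag and allophycocyanin anti-GST antibodies, added with EDTA stop buffer and read after 2 h at 24 °C. The preceding reaction ran 105 min at 24 °C: 0.11 nM recombinant SAE, 0.5 μM ATP, Sumo-Flag, Ubc9-GST, pH 7.5. Values given as single-concentration inhibition or IC50.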
recombinant human SAE enzyme, sequence (Q9UBT2 whole entry): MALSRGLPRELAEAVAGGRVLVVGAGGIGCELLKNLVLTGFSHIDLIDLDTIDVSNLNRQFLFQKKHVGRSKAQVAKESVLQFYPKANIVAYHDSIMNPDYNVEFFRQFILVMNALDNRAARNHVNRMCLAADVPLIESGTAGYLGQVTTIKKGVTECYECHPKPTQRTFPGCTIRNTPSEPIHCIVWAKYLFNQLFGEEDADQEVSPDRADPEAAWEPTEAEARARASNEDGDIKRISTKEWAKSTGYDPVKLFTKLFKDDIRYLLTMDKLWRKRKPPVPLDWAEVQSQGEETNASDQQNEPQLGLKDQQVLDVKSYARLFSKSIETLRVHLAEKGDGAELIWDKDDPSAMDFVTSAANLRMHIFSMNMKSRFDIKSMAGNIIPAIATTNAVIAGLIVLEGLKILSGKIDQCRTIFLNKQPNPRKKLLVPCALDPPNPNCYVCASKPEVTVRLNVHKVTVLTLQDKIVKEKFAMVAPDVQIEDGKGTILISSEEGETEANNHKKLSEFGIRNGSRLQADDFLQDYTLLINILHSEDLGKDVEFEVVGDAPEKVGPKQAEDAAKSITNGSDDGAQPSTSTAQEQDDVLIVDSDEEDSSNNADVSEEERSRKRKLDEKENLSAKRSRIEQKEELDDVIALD
recombinant human SAE enzyme, sequence (Q9UBE0 whole entry partner): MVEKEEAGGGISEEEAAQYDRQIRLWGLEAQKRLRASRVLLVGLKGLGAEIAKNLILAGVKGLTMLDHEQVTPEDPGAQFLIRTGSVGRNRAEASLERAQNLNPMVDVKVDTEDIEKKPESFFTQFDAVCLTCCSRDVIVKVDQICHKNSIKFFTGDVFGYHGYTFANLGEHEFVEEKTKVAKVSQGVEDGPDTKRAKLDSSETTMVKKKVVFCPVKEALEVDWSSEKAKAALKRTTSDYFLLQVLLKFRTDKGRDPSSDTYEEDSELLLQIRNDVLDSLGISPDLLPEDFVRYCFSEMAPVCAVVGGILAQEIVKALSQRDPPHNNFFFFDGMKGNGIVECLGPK
For orientation: In TR-FRET formats the signal depends on donor and acceptor labels being close together.

The IC50 is the concentration at which inhibition is half-maximal. For `NS(=O)(=O)OC[C@H]1C[C@@H](Nc2ncncc2C(=O)c2cc([C@@H]3OCCc4ccc(Cl)cc43)c(Cl)s2)C[C@@H]1O` (single isomer, unassigned) [I-282b, [(1R,2S,4R)-4-{[5-({5-chloro-4-[(1R)-7-chloro-3,4-dihydro-1H-isochromen-1-yl]-2-thienyl}carbonyl)pyrimidin-4-yl]amino}-2-hydroxycyclopentyl]methyl sulfamate or [(1R,2S,4R)-4-{[5-({5-chloro-4-[(1S)-7-chloro-3,4-dihydro-1H-isochromen-1-yl]-2-thienyl}carbonyl)pyrimidin-4-yl]amino}-2-hydroxycyclopentyl]methyl sulfamate], the “Percent Inhibition” value is reported as 102% and the concentration for half-maximal inhibition (IC50) was less than 10 nM.

With `NS(=O)(=O)OC[C@H]1C[C@@H](Nc2ncncc2C(=O)c2cc([C@@H]3NCCc4ccccc43)cs2)C[C@@H]1O` (single isomer, unassigned) [I-283a, [(1R,2S,4R)-2-hydroxy-4-{[5-({4-[(1R)-1,2,3,4-tetrahydroisoquinolin-1-yl]-2-thienyl}carbonyl)pyrimidin-4-yl]amino}cyclopentyl]methyl sulfamate or [(1R,2S,4R)-2-hydroxy-4-{[5-({4-[(1S)-1,2,3,4-tetrahydroisoquinolin-1-yl]-2-thienyl}carbonyl)pyrimidin-4-yl]amino}cyclopentyl]methyl sulfamate], the “Percent Inhibition” value is recorded as 99% and the IC50 is less than 10 nM.

Take `NS(=O)(=O)OC[C@H]1C[C@@H](Nc2ncncc2C(=O)c2cc([C@@H]3NCCc4ccccc43)cs2)C[C@@H]1O` (single isomer, unassigned) [I-283b, [(1R,2S,4R)-2-hydroxy-4-{[5-({4-[(1R)-1,2,3,4-tetrahydroisoquinolin-1-yl]-2-thienyl}carbonyl)pyrimidin-4-yl]amino}cyclopentyl]methyl sulfamate or [(1R,2S,4R)-2-hydroxy-4-{[5-({4-[(1S)-1,2,3,4-tetrahydroisoquinolin-1-yl]-2-thienyl}carbonyl)pyrimidin-4-yl]amino}cyclopentyl]methyl sulfamate]: the “Percent Inhibition” value was 93% and the IC50 is 10 to 100 nM.

In the case of `CN1Cc2ccc(Cl)cc2[C@@H]1c1cc(C(=O)c2cncnc2N[C@@H]2C[C@H](COS(N)(=O)=O)[C@@H](O)C2)sc1Cl` (single isomer, unassigned) [I-284a, [(1R,2S,4R)-4-{[5-({5-chloro-4-[(1R)-6-chloro-2-methyl-2,3-dihydro-1H-isoindol-1-yl]-2-thienyl}carbonyl)pyrimidin-4-yl]amino}-2-hydroxycyclopentyl]methyl sulfamate or [(1R,2S,4R)-4-{[5-({5-chloro-4-[(1S)-6-chloro-2-methyl-2,3-dihydro-1H-isoindol-1-yl]-2-thienyl}carbonyl)pyrimidin-4-yl]amino}-2-hydroxycyclopentyl]methyl sulfamate], the “Percent Inhibition” value amounted to 49% and the half-inhibitory concentration (IC50) is 100 to 1000 nM.

Regarding `CN1Cc2ccc(Cl)cc2[C@@H]1c1cc(C(=O)c2cncnc2N[C@@H]2C[C@H](COS(N)(=O)=O)[C@@H](O)C2)sc1Cl` (single isomer, unassigned) [I-284b, [(1R,2S,4R)-4-{[5-({5-chloro-4-[(1R)-6-chloro-2-methyl-2,3-dihydro-1H-isoindol-1-yl]-2-thienyl}carbonyl)pyrimidin-4-yl]amino}-2-hydroxycyclopentyl]methyl sulfamate or [(1R,2S,4R)-4-{[5-({5-chloro-4-[(1S)-6-chloro-2-methyl-2,3-dihydro-1H-isoindol-1-yl]-2-thienyl}carbonyl)pyrimidin-4-yl]amino}-2-hydroxycyclopentyl]methyl sulfamate], the “Percent Inhibition” value stood at 99% and the half-inhibitory concentration (IC50) was less than 10 nM.

With `Cc1sc(C(=O)c2cncnc2N[C@@H]2C[C@H](COS(N)(=O)=O)[C@@H](O)C2)cc1[C@@H]1OCCc2cccnc21` (single isomer, unassigned) [I-285a, [(1R,2S,4R)-4-{[5-({4-[(8S)-5,8-dihydro-6H-pyrano[3,4-b]pyridin-8-yl]-5-methyl-2-thienyl}carbonyl)pyrimidin-4-yl]amino}-2-hydroxycyclopentyl]methyl sulfamate or [(1R,2S,4R)-4-{[5-({4-[(8R)-5,8-dihydro-6H-pyrano[3,4-b]pyridin-8-yl]-5-methyl-2-thienyl}carbonyl)pyrimidin-4-yl]amino}-2-hydroxycyclopentyl]methyl sulfamate], the “Percent Inhibition” value turned out to be 101% and the IC50 is less than 10 nM.

Consider `Cc1sc(C(=O)c2cncnc2N[C@@H]2C[C@H](COS(N)(=O)=O)[C@@H](O)C2)cc1[C@@H]1OCCc2cccnc21` (single isomer, unassigned) [I-285b, [(1R,2S,4R)-4-{[5-({4-[(8S)-5,8-dihydro-6H-pyrano[3,4-b]pyridin-8-yl]-5-methyl-2-thienyl}carbonyl)pyrimidin-4-yl]amino}-2-hydroxycyclopentyl]methyl sulfamate or [(1R,2S,4R)-4-{[5-({4-[(8R)-5,8-dihydro-6H-pyrano[3,4-b]pyridin-8-yl]-5-methyl-2-thienyl}carbonyl)pyrimidin-4-yl]amino}-2-hydroxycyclopentyl]methyl sulfamate], for which the “Percent Inhibition” value came to 44% and the IC50 was in the range of 100 to 1000 nM.

Take `Cc1sc(C(=O)c2cncnc2N[C@@H]2C[C@H](COS(N)(=O)=O)[C@@H](O)C2)cc1[C@@H]1OCCc2ccc(Cl)nc21` (single isomer, unassigned) [I-286a, [(1R,2S,4R)-4-{[5-({4-[(8S)-2-chloro-5,8-dihydro-6H-pyrano[3,4-b]pyridin-8-yl]-5-methyl-2-thienyl}carbonyl)pyrimidin-4-yl]amino}-2-hydroxycyclopentyl]methyl sulfamate or [(1R,2S,4R)-4-{[5-({4-[(8R)-2-chloro-5,8-dihydro-6H-pyrano[3,4-b]pyridin-8-yl]-5-methyl-2-thienyl}carbonyl)pyrimidin-4-yl]amino}-2-hydroxycyclopentyl]methyl sulfamate]: the “Percent Inhibition” value came out at 39% and the IC50 is 100 to 1000 nM.

As to `Cc1sc(C(=O)c2cncnc2N[C@@H]2C[C@H](COS(N)(=O)=O)[C@@H](O)C2)cc1[C@@H]1OCCc2ccc(Cl)nc21` (single isomer, unassigned) [I-286b, [(1R,2S,4R)-4-{[5-({4-[(8S)-2-chloro-5,8-dihydro-6H-pyrano[3,4-b]pyridin-8-yl]-5-methyl-2-thienyl}carbonyl)pyrimidin-4-yl]amino}-2-hydroxycyclopentyl]methyl sulfamate or [(1R,2S,4R)-4-{[5-({4-[(8R)-2-chloro-5,8-dihydro-6H-pyrano[3,4-b]pyridin-8-yl]-5-methyl-2-thienyl}carbonyl)pyrimidin-4-yl]amino}-2-hydroxycyclopentyl]methyl sulfamate], the “Percent Inhibition” value is on record as 99% and the IC50 was less than 10 nM.

Consider `Cc1nc2c(s1)CCO[C@H]2c1cc(C(=O)c2cncnc2N[C@@H]2C[C@H](COS(N)(=O)=O)[C@@H](O)C2)sc1C` (single isomer, unassigned) [I-287a, [(1R,2S,4R)-2-hydroxy-4-{[5-({5-methyl-4-[(4S)-2-methyl-6,7-dihydro-4H-pyrano[3,4-d][1,3]thiazol-4-yl]-2-thienyl}carbonyl)pyrimidin-4-yl]amino}cyclopentyl]methyl sulfamate or [(1R,2S,4R)-2-hydroxy-4-{[5-({5-methyl-4-[(4R)-2-methyl-6,7-dihydro-4H-pyrano[3,4-d][1,3]thiazol-4-yl]-2-thienyl}carbonyl)pyrimidin-4-yl]amino}cyclopentyl]methyl sulfamate], for which the “Percent Inhibition” value is 9% and the half-inhibitory concentration (IC50) was 100 to 1000 nM.

Take `Cc1nc2c(s1)CCO[C@H]2c1cc(C(=O)c2cncnc2N[C@@H]2C[C@H](COS(N)(=O)=O)[C@@H](O)C2)sc1C` (single isomer, unassigned) [I-287b, [(1R,2S,4R)-2-hydroxy-4-{[5-({5-methyl-4-[(4S)-2-methyl-6,7-dihydro-4H-pyrano[3,4-d][1,3]thiazol-4-yl]-2-thienyl}carbonyl)pyrimidin-4-yl]amino}cyclopentyl]methyl sulfamate or [(1R,2S,4R)-2-hydroxy-4-{[5-({5-methyl-4-[(4R)-2-methyl-6,7-dihydro-4H-pyrano[3,4-d][1,3]thiazol-4-yl]-2-thienyl}carbonyl)pyrimidin-4-yl]amino}cyclopentyl]methyl sulfamate]: the “Percent Inhibition” value is on record as 98% and the IC50 was less than 10 nM.

On to `NS(=O)(=O)OC[C@H]1C[C@@H](Nc2ncncc2C(=O)c2cc([C@@H]3OCC(F)(F)c4ccc(Cl)cc43)cs2)C[C@@H]1O` (single isomer, unassigned) [I-289a, [(1R,2S,4R)-4-{[5-({4-[(1R)-7-chloro-4,4-difluoro-3,4-dihydro-1H-isochromen-1-yl]-2-thienyl}carbonyl)pyrimidin-4-yl]amino}-2-hydroxycyclopentyl]methyl sulfamate or [(1R,2S,4R)-4-{[5-({4-[(1S)-7-chloro-4,4-difluoro-3,4-dihydro-1H-isochromen-1-yl]-2-thienyl}carbonyl)pyrimidin-4-yl]amino}-2-hydroxycyclopentyl]methyl sulfamate], for which the “Percent Inhibition” value is given as 16% and the IC50 was 100 to 1000 nM.

Regarding `NS(=O)(=O)OC[C@H]1C[C@@H](Nc2ncncc2C(=O)c2cc([C@@H]3OCC(F)(F)c4ccc(Cl)cc43)cs2)C[C@@H]1O` (single isomer, unassigned) [I-289b, [(1R,2S,4R)-4-{[5-({4-[(1R)-7-chloro-4,4-difluoro-3,4-dihydro-1H-isochromen-1-yl]-2-thienyl}carbonyl)pyrimidin-4-yl]amino}-2-hydroxycyclopentyl]methyl sulfamate or [(1R,2S,4R)-4-{[5-({4-[(1S)-7-chloro-4,4-difluoro-3,4-dihydro-1H-isochromen-1-yl]-2-thienyl}carbonyl)pyrimidin-4-yl]amino}-2-hydroxycyclopentyl]methyl sulfamate], the “Percent Inhibition” value was determined as 99% and the IC50 was less than 10 nM.
